This experiment addresses T1, Human TRPC6 (Homo sapiens, UniProt Q9Y210).
T1 construct: expressed in transfected cells
T1 sequence (Q9Y210 1-931): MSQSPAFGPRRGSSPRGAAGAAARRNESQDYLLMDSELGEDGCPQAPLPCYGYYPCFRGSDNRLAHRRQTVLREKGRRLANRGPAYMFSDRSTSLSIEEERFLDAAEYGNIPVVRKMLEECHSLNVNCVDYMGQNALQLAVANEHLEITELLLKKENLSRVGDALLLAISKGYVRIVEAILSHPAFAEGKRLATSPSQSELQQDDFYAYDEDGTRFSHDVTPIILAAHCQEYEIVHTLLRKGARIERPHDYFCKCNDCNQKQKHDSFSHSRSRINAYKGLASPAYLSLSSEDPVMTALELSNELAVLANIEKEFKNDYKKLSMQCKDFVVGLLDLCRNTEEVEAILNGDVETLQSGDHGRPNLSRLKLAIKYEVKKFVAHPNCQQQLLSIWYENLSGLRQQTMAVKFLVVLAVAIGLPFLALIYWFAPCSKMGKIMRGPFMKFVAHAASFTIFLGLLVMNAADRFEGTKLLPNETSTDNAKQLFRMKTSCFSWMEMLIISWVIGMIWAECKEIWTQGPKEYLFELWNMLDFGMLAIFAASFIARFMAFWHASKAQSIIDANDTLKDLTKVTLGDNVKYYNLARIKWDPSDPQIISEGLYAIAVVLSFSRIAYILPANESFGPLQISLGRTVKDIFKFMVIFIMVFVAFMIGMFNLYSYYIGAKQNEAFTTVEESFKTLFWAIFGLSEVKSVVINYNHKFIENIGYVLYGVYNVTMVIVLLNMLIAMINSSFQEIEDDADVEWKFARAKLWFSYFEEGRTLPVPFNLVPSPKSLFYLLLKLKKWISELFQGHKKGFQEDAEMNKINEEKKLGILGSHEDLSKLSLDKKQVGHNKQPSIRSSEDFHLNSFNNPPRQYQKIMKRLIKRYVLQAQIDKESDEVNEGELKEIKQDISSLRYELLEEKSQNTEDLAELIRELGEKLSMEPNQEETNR
Kind of experiment: Evaluation of TRPC6 channel inhibitory activity (1), FLIPR Calcium 5 Assay Kit, OAG stimulation (Compound Nos. 1-1293). It counts as cell-based. To be noted: Human TRPC6 stably-expressing cells, OAG 30 μM, FLIPR Calcium 5 Assay Kit; read-out: Inhibitory activity (pIC50 class) (converted). The essentials: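 The FLIPR signal is maximum fluorescence after 30 μM OAG minus minimum before compound, measured in a human TRPC6 stable line loaded with Calcium 5 dye. Compounds were preincubated 20 min. pIC50 came from four-parameter logistic fitting of inhibition rates and is given as symbol ranges.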

Structures are written as SMILES. Some results are limits rather than exact numbers.

As to `Cc1nc(-c2ccccc2)cn1Cc1cc(C#N)ccc1-n1cc(C(O)CN)cn1` (stereo not drawn) [compound 1128, 4-[4-(2-amino-1-hydroxyethyl)pyrazol-1-yl]-3-[(2-methyl-4-phenylimidazol-1-yl)methyl]benzonitrile], the IC50 is more than 1000 nM.

Consider `N#Cc1ccc(-c2ccc(C(O)CN)cc2)c(Cn2cnc(-c3ccccc3)c2)c1` (stereo not drawn) [compound 1129, 4-[4-(2-amino-1-hydroxyethyl)phenyl]-3-[(4-phenylimidazol-1-yl)methyl]benzonitrile], for which the IC50 is less than 10 nM.

Turning to `Cc1nc(-c2ccccc2)cn1Cc1cc(C#N)ccc1-c1ccc(C(O)CN)cc1` (stereo not drawn) [compound 1130, 4-[4-(2-amino-1-hydroxyethyl)phenyl]-3-[(2-methyl-4-phenylimidazol-1-yl)methyl]benzonitrile], the IC50 was less than 10 nM.

Regarding `N#Cc1ccc(-c2ccc(CCN)nc2)c(Cn2cnc(-c3ccccc3)c2)c1` [compound 1132, 4-[6-(2-aminoethyl)pyridin-3-yl]-3-[(4-phenylimidazol-1-yl)methyl]benzonitrile], the IC50 is 10 to 1000 nM.

Regarding `N#Cc1ccc(-c2ccc(C(O)CN)cn2)c(Cn2cncc2-c2ccccc2)c1` (stereo not drawn) [compound 1133, 4-[5-(2-amino-1-hydroxyethyl)pyridin-2-yl]-3-[(5-phenylimidazol-1-yl)methyl]benzonitrile], the IC50 is more than 1000 nM.

Regarding `N#Cc1ccc(-c2ncc(CCN)cn2)c(Cn2cncc2-c2ccccc2)c1` [compound 1134, 4-[5-(2-aminoethyl)pyrimidin-2-yl]-3-[(5-phenylimidazol-1-yl)methyl]benzonitrile], the IC50 was more than 1000 nM.

With `N#Cc1ccc(-c2ncc(CCN)cn2)c(Cn2cnc(-c3ccccc3)c2)c1` [compound 1135, 4-[5-(2-aminoethyl)pyrimidin-2-yl]-3-[(4-phenylimidazol-1-yl)methyl]benzonitrile], the IC50 is less than 10 nM.

In the case of `N#Cc1ccc(-c2ccc([C@@H](O)CN)cn2)c(Cn2cncc2-c2ccccc2)c1` [compound 1136, 4-[5-[(1R)-2-amino-1-hydroxyethyl]pyridin-2-yl]-3-[(5-phenylimidazol-1-yl)methyl]benzonitrile], the IC50 is more than 1000 nM.

In the case of `Cc1nc(-c2ccccc2)cn1Cc1cc(C#N)ccc1-c1ncc(CCN)cn1` [compound 1137, 4-[5-(2-aminoethyl)pyrimidin-2-yl]-3-[(2-methyl-4-phenylimidazol-1-yl)methyl]benzonitrile], the IC50 is less than 10 nM.

`N#Cc1ccc(-c2ccc([C@@H](O)CN)cn2)c(Cn2cnc(-c3ccccc3)c2)c1` [compound 1138, 4-[5-[(1R)-2-amino-1-hydroxyethyl]pyridin-2-yl]-3-[(4-phenylimidazol-1-yl)methyl]benzonitrile]: the IC50 is 10 to 1000 nM.

As to `Cc1nc(-c2ccccc2)cn1Cc1cc(C#N)ccc1-c1ccc(C(O)CN)cn1` (stereo not drawn) [compound 1139, 4-[5-(2-amino-1-hydroxyethyl)pyridin-2-yl]-3-[(2-methyl-4-phenylimidazol-1-yl)methyl]benzonitrile], the IC50 was 10 to 1000 nM.

For the compound `COC(C)c1cn(Cc2cc(C#N)ccc2-c2ccc(CCN)cn2)c(C)n1` (stereo not drawn) [compound 1140, 4-[5-(2-aminoethyl)pyridin-2-yl]-3-[[4-(1-methoxyethyl)-2-methylimidazol-1-yl]methyl]benzonitrile], the IC50 was 10 to 1000 nM.

In the case of `COC(C)c1cn(Cc2cc(C#N)ccc2-c2ncc(CCN)cn2)c(C)n1` (stereo not drawn) [compound 1141, 4-[5-(2-aminoethyl)pyrimidin-2-yl]-3-[[4-(1-methoxyethyl)-2-methylimidazol-1-yl]methyl]benzonitrile], the IC50 was 10 to 1000 nM.

For the compound `CCC(OC)c1cn(Cc2cc(C#N)ccc2-c2ncc(CCN)cn2)c(C)n1` (stereo not drawn) [compound 1142, 4-[5-(2-aminoethyl)pyrimidin-2-yl]-3-[[4-(1-methoxypropyl)-2-methylimidazol-1-yl]methyl]benzonitrile], the IC50 is 10 to 1000 nM.

`N#Cc1ccc(-c2ccc(CCN)cn2)c(Cn2cnc(-c3ccccc3F)c2)c1` [compound 1143, 4-[5-(2-aminoethyl)pyridin-2-yl]-3-[[4-(2-fluorophenyl)imidazol-1-yl]methyl]benzonitrile]: the IC50 is less than 10 nM.

(Values after patent publication US20230167073A1 (Teijin Pharma Limited, priority 2020, published 2023).)
